Source: patent US20140088187A1, “ANDROGEN RECEPTOR INHIBITORS AND METHODS OF USE THEREOF” (BETH ISRAEL DEACONESS MEDICAL CENTER, priority 2010, published 2014)
Where a chain is given by its changes, count along the chain named. Entries after “also recorded” stand apart in the source; their conditions may differ.

Tests used:
wildtype AR = biological target: T1, wildtype AR (Homo sapiens, UniProt P10275); test: AR-responsive firefly luciferase reporter assay in COS7 cells transfected with AR (DHT-stimulated AR activity); type: cell-based; details: for inhibition at 12.5 µM: COS-7, 24 h, read-out: % Angtag (12.5 μM vs. 1 nM DHT)
T1 construct: The AR WT construct expresses full-length human AR under cmv promoter control; expressed in transfected cells; host or cells: COS7
T1 sequence (P10275 1-920): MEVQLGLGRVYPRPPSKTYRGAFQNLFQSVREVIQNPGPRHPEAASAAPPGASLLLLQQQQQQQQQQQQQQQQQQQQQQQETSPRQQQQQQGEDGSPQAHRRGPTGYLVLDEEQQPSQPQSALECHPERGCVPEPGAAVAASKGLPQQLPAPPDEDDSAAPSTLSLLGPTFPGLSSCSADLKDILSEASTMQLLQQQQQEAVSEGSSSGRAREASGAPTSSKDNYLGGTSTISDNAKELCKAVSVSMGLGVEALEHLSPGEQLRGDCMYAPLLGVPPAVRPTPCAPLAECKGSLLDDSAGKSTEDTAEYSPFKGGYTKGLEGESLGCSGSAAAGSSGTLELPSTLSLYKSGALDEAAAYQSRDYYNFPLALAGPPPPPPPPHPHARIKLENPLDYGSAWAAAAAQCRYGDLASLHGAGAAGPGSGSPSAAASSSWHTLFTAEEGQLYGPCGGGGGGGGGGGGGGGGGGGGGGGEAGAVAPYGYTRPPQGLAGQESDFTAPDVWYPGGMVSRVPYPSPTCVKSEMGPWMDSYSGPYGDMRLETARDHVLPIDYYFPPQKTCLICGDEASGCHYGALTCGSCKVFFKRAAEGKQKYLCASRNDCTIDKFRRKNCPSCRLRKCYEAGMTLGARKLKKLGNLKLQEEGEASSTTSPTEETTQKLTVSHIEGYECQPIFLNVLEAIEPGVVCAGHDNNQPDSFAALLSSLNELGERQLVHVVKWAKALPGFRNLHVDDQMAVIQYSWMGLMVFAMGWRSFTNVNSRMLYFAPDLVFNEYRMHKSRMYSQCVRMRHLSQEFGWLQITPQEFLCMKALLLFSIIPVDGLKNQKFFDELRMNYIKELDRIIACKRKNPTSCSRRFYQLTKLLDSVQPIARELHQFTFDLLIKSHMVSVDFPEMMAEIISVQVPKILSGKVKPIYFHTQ
Source text: FIG. 13. Antagonist activity of generation 4 compounds at 25 micromolar. […] Reporter firefly luciferase is corrected for control Renilla activity.
FIG. 14. Antagonist activity of generation 4 compounds at 1-10 micromolar. […] Reporter firefly luciferase is corrected for control Renilla activity. […]
(§1) The AR-responsive firefly luciferase reporter consists of 4 tandem repeats of the consensus steroid response element cloned upstream of the pGL3-Basic Luciferase vector (Promega). The AR WT construct expresses full-length human AR under cmv promoter control.
(§2) Luciferase activity was determined using the Dual-Luciferase Reporter Assay System (Promega E1910).

T877A mutant AR = biological target: T2, T877A mutant AR (Homo sapiens, UniProt P10275, T878A); test: T877A mutant AR luciferase reporter assay; type: cell-based; details: HF 100 nM; chemotype A compounds 10 μM
T2 sequence (P10275 1-920 T878A): T1 sequence (P10275 1-920) with T878A
Description: FIG. 6. […] (f) W741C mutant AR response to Bic (10 μM), HF (100 nM), and chemotype A compounds (10 μM). Error bars represent S.E.M.
To further validate the predicted positioning of the compounds in the steroid binding pocket, we also examined the effects of established mutations within the LBD.
as §1, §2

VP16-AR = VP16-AR (Homo sapiens, UniProt P10275)
AR in VCaP cells [1] = biological target: T3, AR in VCaP cells (Homo sapiens, UniProt P10275); test: Nuclear AR, total AR protein and PSA expression in VCaP cells in steroid depleted medium; type: cell-based
T3 construct: endogenous in cells; host or cells: VCaP
T3 sequence (P10275 1-920): T1 sequence (P10275 1-920)
Source text: VCaP cells, derived from a CRPC vertebral metastasis, express substantial levels of AR and AR regulated genes such as PSA even when cultured in steroid depleted medium. […] In additional studies focused on chemotype A compounds, we used immunofluorescence to assess AR nuclear localization. […] In contrast, and consistent with the biochemical fractionation studies noted above, basal nuclear AR was decreased by A61.
We used the NE-PER Nuclear and Cytoplasmic Extraction Reagents (Pierce 78833).

AR in C4-2 cells = biological target: T4, AR in C4-2 cells (Homo sapiens, UniProt P10275, T878A)
T4 sequence (P10275 1-920 T878A): T1 sequence (P10275 1-920) with T878A

AR in VCaP cells [2] = biological target: T3, AR in VCaP cells; test: Immunofluorescence of AR nuclear localization in VCaP cells (CSS medium); type: cell-based
Source text: VCaP cells, derived from a CRPC vertebral metastasis, express substantial levels of AR and AR regulated genes such as PSA even when cultured in steroid depleted medium. […] In additional studies focused on chemotype A compounds, we used immunofluorescence to assess AR nuclear localization.

[3] = steroid depleted medium, data not shown

inhibition at 12.5 µM (wildtype AR)	SMILES	also measured
20%	CCC(=O)c1ccc(S(=O)(=O)NCc2ccc3c(c2)OCO3)cc1C(F)(F)F [Compound 33, N-(benzo[d][1,3]dioxol-5-ylmethyl)-4-propionyl-3-(trifluoromethyl)benzenesulfonamide]	–
50%	CC(=O)c1ccc(S(=O)(=O)NCc2ccc3c(c2)OCO3)cc1C(F)(F)F [Compound 32, 4-acetyl-N-(benzo[d][1,3]dioxol-5-ylmethyl)-3-(trifluoromethyl)benzenesulfonamide]	–
85%	CS(=O)(=O)c1cc(S(=O)(=O)NCc2ccc3c(c2)OCO3)ccc1OC(F)(F)F [Compound 31, N-(benzo[d][1,3]dioxol-5-ylmethyl)-3-(methylsulfonyl)-4-(trifluoromethoxy)benzenesulfonamide]	–
20%	NC(=O)c1cc(S(=O)(=O)NCc2ccc3c(c2)OCO3)ccc1OC(F)(F)F [Compound 30, 5-(N-(benzo[d][1,3]dioxol-5-ylmethyl)sulfamoyl)-2-(trifluoromethoxy)benzamide]	–

The remaining lines, values behind:

SMILES	inhibition at 12.5 µM (wildtype AR)	also measured
O=C(CBr)Nc1cccc(S(=O)(=O)NCc2ccc3c(c2)OCO3)c1 [Compound 17, N-(3-(N-(Benzo[d][1,3]dioxol-5-ylmethyl)sulfamoyl)phenyl)-2-bromoacetamide]	20%	–
O=C(Nc1ccc(S(=O)(=O)NCc2ccc3c(c2)OCO3)cc1)C(F)(F)F [Compound 20, N-(4-(N-(Benzo[d][1,3]-dioxol-5-ylmethyl)sulfamoyl)phenyl)-2,2,2-trifluoroacetamide]	0%	–
CC(C)(O)C(=O)Nc1ccc([N+](=O)[O-])c(C(F)(F)F)c1 [hydroxyflutamide]	–	agonist activity on T877A mutant AR (T877A mutant AR): strong agonist; VP16-AR reporter (transcriptional) activity (VP16-AR): strong reporter activity
CC(=O)N(C(C)=O)c1ccc(S(=O)(=O)NCc2ccc3c(c2)OCO3)cc1 [Compound 15, N-acetyl-N-(4-(N-(Benzo[d][1,3]dioxol-5-ylmethyl)sulfamoyl)phenyl) acetamide]	–	% Angtag (12.5 μM vs. 1 nM DHT) (wildtype AR; 12.5 μM compound vs. 1 nM DHT): 85%
CS(=O)(=O)Nc1ccc(S(=O)(=O)NCc2ccc3c(c2)OCO3)cc1 [Compound 21, N-(benzo[d][1,3]dioxol-5-ylmethyl)-4-(methylsulfonamido)benzenesulfonamide]	70%	–
CC(C)(C)CC(=O)Nc1ccc(S(=O)(=O)NCc2ccc3c(c2)OCO3)cc1 [Compound 22, N-(4-(N-(Benzo[d][1,3]dioxol-5-ylmethyl)sulfamoyl)phenyl)-3,3-dimethylbutanamide]	70%	–
O=S(=O)(NCc1ccc2c(c1)OCO2)c1ccc(C(F)(F)F)c(N=C=S)c1 [Compound 23, N-(benzo[d][1,3]dioxol-5-ylmethyl)-3-isothiocyanato-4-(trifluoromethyl)benzenesulfonamide]	75%	–
O=S(=O)(NCc1ccc2c(c1)OCO2)c1ccc(F)cc1F [Compound A61, N-(1,3-benzodioxol-5-ylmethyl)-2,4-difluorobenzenesulfonamide]	–	basal level PSA expression (AR in VCaP cells [1]; 10 μM, steroid depleted medium): further decreasing basal level PSA expression; nuclear AR (AR in VCaP cells [1]; 10 μM, steroid depleted medium): significantly decreased nuclear AR; DHT stimulated PSA expression (AR in VCaP cells [1]; not shown): blocking DHT stimulated PSA expression; basal PSA (AR in C4-2 cells; 24 hours (FIG. 10a)): decrease in basal PSA; total AR protein levels (AR in C4-2 cells; 24 hours (FIG. 10a)): noteworthy decrease; PSA expression (AR in C4-2 cells; [3]): reduced; nuclear AR levels (AR in C4-2 cells; [3]): reduced nuclear AR levels; nuclear AR levels by immunofluorescence (AR in VCaP cells [2]): decreased; potency in antagonizing AR activity in luciferase reporter assays (wildtype AR; relative to initial chemotype A compounds, data not shown): increased potency; also recorded: relatively higher potency
O=C(CCl)Nc1ccc(S(=O)(=O)NCc2ccc3c(c2)OCO3)cc1 [Compound 14, N-(4-(N-(Benzo[d][1,3]dioxol-5-ylmethyl)sulfamoyl)phenyl)chloroacetamide]	90%	–
CC(=O)c1ccc(S(=O)(=O)NCc2ccc3c(c2)OCO3)cc1OC(F)(F)F [Compound 25, 4-acetyl-N-(benzo[d][1,3]dioxol-5-ylmethyl)-3-(trifluoromethoxy)benzenesulfonamide]	50%	–
O=C(CBr)Nc1ccc(S(=O)(=O)NCc2ccc3c(c2)OCO3)cc1 [Compound 13, N-(4-(N-(Benzo[d][1,3]dioxol-5-ylmethyl)sulfamoyl)phenyl) bromoacetamide]	70%	–
CCC(=O)c1cc(S(=O)(=O)NCc2ccc3c(c2)OCO3)ccc1OC(F)(F)F [Compound 29, N-(benzo[d][1,3]dioxol-5-ylmethyl)-3-propionyl-4-(trifluoromethoxy)benzenesulfonamide]	60%	–
